Measurements: patent publication US20050004007A1, “Promotion of adoptosis in cancer cells by co-administration of cyclin dependent kinase inhibitiors and cellular differentiation agents” (priority 2000, published 2005)

Columns and labels:
Format in all cases: cell-based, human
U937 cells [1] = test: loss of mitochondrial membrane potential (DiOC6 uptake, flow cytometry); settings: for percentage of cells displaying a loss of Δψm: 100 nM FP, 1 mM SB, 12 or 24 hr
Experimental: Assessment of mitochondrial membrane potential. At designated times, 1 ml aliquots of cells (2×10^5) were harvested and incubated with 40 nM DiOC6 for 15 minutes at 25° C. as previously described [Zamzami et al 1995]or at 37° C. Samples were analyzed using a Becton Dickinson FACScan flow cytometer (excitation λ=488 nm; emission λ=525 nm). […] Data acquisition and analysis was performed using […] Software (Becton Dickinson, Mansfield, Mass.).

U937 cells [2] = test: CD11b surface differentiation marker expression (flow cytometry); settings: 1 mM SB, 100 nM FP, 48 h
Experimental: Differentiation studies. Expression of the monocytic differentiation marker, CD11b, was monitored by direct immunofluorescence staining and flow cytometric analysis as previously described [Freemerman et al. 1997]. Following drug treatment, suspension and adherent cells were enumerated by a Coulter Counter and 2×10^6 cells were pelleted by centrifugation. The supernatant was aspirated and the cells were resuspended in 300 μl of ice-cold PBS. Two 100 μl aliquots from each sample were then combined with either phycoerythrin-1 (10 μl) or the IgG control. Samples were incubated for 20 min at 4° C. and diluted in PBS (1 ml). Sample data were collected using a Becton Dickinson FACScan flow cytometer and analyzed with Verity Winlist Software (Verity; Topsham, Me.). […] U937 cells were transfected with a full-length p21^WAF1/CIP1 promoter (base pairs 1-2326) as described by Chinery et al. [Chinery et al. 1997] utilizing electroporation (Eppendorf Multiporator, 620V, 60 μs) in hypoosmolar buffer. In each experiment, pSV-βgal (Promega), containing the β-galactosidase gene under the control of the constitutively active SV40 promoter and enhancer, was co-transfected with the luciferase reporter at a ratio of 1:5 (w/w) to normalize for transfection efficiency. The cells were incubated overnight in complete media and treated with 10 nM PMA, 100 nM FP, or 10 nM PMA/100 nM FP for 3 or 6 h. At indicated times, cells were washed in serum-free media, resuspended in 0.25M Tris-HCl pH 7.8, lysed by rapid freeze-thaw, centrifuged and the supernatant frozen at −70° C. Lysates (20 μL) were mixed with luciferase assay reagent (100 μL) and monitored for 20 seconds in a luminometer (Monolight 2010). For β-galactosidase activity, lysates (50 μL) were mixed in triplicate with an equal volume of […] assay buffer (2×) in a 96-well plate and incubated overnight. The reaction was terminated by addition of NaCO3 and absorbance was measured at 405 nm in a Vmax plate reader (Molecular Devices). Activity was determined by comparison to a standard curve. […]

U937 cells [3] = test: cell cycle analysis (propidium iodide, flow cytometry)
Experimental: Cell Cycle Analysis. Following drug treatment, cells were pelleted by centrifugation at 500 g×6 min, and resuspended in 70% ethanol. The cells were incubated on ice for at least 1 h and resuspended in 1 ml cell cycle buffer (0.38 mM Na-Citrate, 0.5 mg/ml RNase A, and 0.01 mg/ml propidium iodide) at a concentration of 10×10^5 cells/ml, stored in the dark at 4 C until analysis (24 h), using a Becton-Dickinson FACScan flow cytometer and Verity Winlist software (Verity Software, Topsham, Me.).

Bcl-2 = test: Western analysis of Bcl-2 cleavage in U937 cells; settings: SB 1 mM, FP 100 nM, 12 and 24 hr
Experimental: (§1) Alternatively, whole cell-pellets were washed twice in PBS, resuspended in PBS, and lysed by the addition of I volume of loading buffer. Lysates were boiled for 10 min, centrifuged at 12,800 g for 5 min and quantified using Coomassie protein assay reagent (Pierce, Rockfold, Ill.). 25 μg of total proteins per point were separated by SDS-PAGE and electro-blotted to nitrocellulose. The blots were blocked in 5% non-fat milk in PBS-T and probed for 1 h with the appropriate dilution of primary antibody. Blots were washed 3×10 min in PBS-T and then incubated with a 1:2000 dilution of peroxidase-conjugated secondary antibody for 1 h at room temperature. Blots were again washed 3×10 min in PBS-T and then developed by enhanced chemiluminesence. Where indicated, blots were stripped and re-probed with antibodies directed against actin. […]

Mcl-1 = test: Western analysis of Mcl-1 in U937 cells; settings: 100 nM FP, 1 mM SB, 12 and 24 hours
Experimental: as §1

Row | SMILES | percentage of cells displaying a loss of Δψm (U937 cells [1]) | loss of mitochondrial membrane potential (Δψm) (U937 cells [1]; 1 and 1.5 μM SAHA and FP (100 nM)) | loss of mitochondrial membrane potential (Δψm) (U937 cells [1]; FP 100 nM, PMA 10 nM, 4-8 h exposure) | expression of the differentiation marker CD11b (U937 cells [2]) | cell cycle distribution (U937 cells [3]; 24 h after administration of SAHA, FP or both) | percentage of cells arresting in G0/G1 (U937 cells [3]; 48 h, 1 mM SB or 100 nM FP) [%] | cleavage of Bcl-2 (rapidly migrating species) (Bcl-2) | levels of Mcl-1 (Mcl-1) | percentage of cells arresting in G0/G1 (U937 cells [3]; 24 h, 1 mM SB) [%]
1 | CN1CC[C@H](c2c(O)cc(O)c3c(=O)cc(-c4ccccc4Cl)oc23)[C@H](O)C1 [FP, Flavopiridol] | modest increase | no effect | reductions were noted | not accompanied by an increase in CD11b expression | increase in the G0/G1 population | ~53 | faintly discerned | reductions in levels of Mcl-1 | 
2 | CCCC(=O)[O-].[Na+] [SB, sodium butyrate] | no effect |  |  | increased expression of the differentiation marker CD11b |  | 81.6 | faintly discerned | minimal effects | 48.1
